Assay results as given in ChEMBL document CHEMBL1146436, “Bioactive alkaloids from Illigera luzonensis” (1997).
Activity calls are given as the source filed them. The calls are words filed in the database; no cut-off is given here.

How the values were obtained:
[1] = Antiplatelet activity against ADP-induced rabbit platelet aggregation assessed as platelet aggregation at 100 ug/ml preincubated for 3 mins by turbidimetric method relative to control; type: functional, Oryctolagus cuniculus
[2] = Antiplatelet activity against arachidonic acid-induced rabbit platelet aggregation assessed as platelet aggregation at 100 ug/ml preincubated for 3 mins by turbidimetric method relative to control; type: functional, Oryctolagus cuniculus
[3] = Antiplatelet activity against collagen-induced rabbit platelet aggregation assessed as platelet aggregation at 100 ug/ml preincubated for 3 mins by turbidimetric method relative to control; type: functional, Oryctolagus cuniculus
[4] = Antiplatelet activity against PAF-induced rabbit platelet aggregation assessed as platelet aggregation at 100 ug/ml preincubated for 3 mins by turbidimetric method relative to control; type: functional, Oryctolagus cuniculus
[5] = Antiplatelet activity against arachidonic acid-induced rabbit platelet aggregation assessed as platelet aggregation at 50 ug/ml preincubated for 3 mins by turbidimetric method relative to control; type: functional, Oryctolagus cuniculus
[6] = Antiplatelet activity against arachidonic acid-induced rabbit platelet aggregation assessed as platelet aggregation at 20 ug/ml preincubated for 3 mins by turbidimetric method relative to control; type: functional, Oryctolagus cuniculus
[7] = Antiplatelet activity against arachidonic acid-induced rabbit platelet aggregation assessed as platelet aggregation at 10 ug/ml preincubated for 3 mins by turbidimetric method relative to control; type: functional, Oryctolagus cuniculus
[8] = Antiplatelet activity against arachidonic acid-induced rabbit platelet aggregation assessed as platelet aggregation at 5 ug/ml preincubated for 3 mins by turbidimetric method relative to control; type: functional, Oryctolagus cuniculus
Aorta [9] = experiment: Vasorelaxant activity against 80 mM potassium-induced contractions in rat thoracic aorta assessed as muscle contractions at 100 ug/mL pretreated for 15 mins before potassium administration relative to control; type: functional; parameters: scale not given: the % may be the effect or the level left
Aorta [10] = experiment: Vasorelaxant activity against 3 uM norepinephrine -induced phasic contractions in rat thoracic aorta assessed as muscle contractions at 100 ug/mL pretreated for 15 mins before norepinephrine administration relative to control; type: functional; parameters: scale not given: the % may be the effect or the level left
Aorta [11] = experiment: Vasorelaxant activity against 3 uM norepinephrine -induced tonic contractions in rat thoracic aorta assessed as muscle contractions at 100 ug/mL pretreated for 15 mins before norepinephrine administration relative to control; type: functional; parameters: scale not given: the % may be the effect or the level left
Aorta [12] = experiment: Effect on resting tension in rat thoracic aorta at 100 ug/mL pretreated for 15 mins; type: functional, tissue-based
[13] = Antiplatelet activity against ADP-induced rabbit platelet aggregation assessed as platelet aggregation at 25 ug/ml preincubated for 3 mins by turbidimetric method relative to control; type: functional, Oryctolagus cuniculus
[14] = Antiplatelet activity against arachidonic acid-induced rabbit platelet aggregation assessed as platelet aggregation at 25 ug/ml preincubated for 3 mins by turbidimetric method relative to control; type: functional, Oryctolagus cuniculus
[15] = Antiplatelet activity against collagen-induced rabbit platelet aggregation assessed as platelet aggregation at 25 ug/ml preincubated for 3 mins by turbidimetric method relative to control; type: functional, Oryctolagus cuniculus
[16] = Antiplatelet activity against PAF-induced rabbit platelet aggregation assessed as platelet aggregation at 25 ug/ml preincubated for 3 mins by turbidimetric method relative to control; type: functional, Oryctolagus cuniculus
[17] = Antiplatelet activity against arachidonic acid-induced rabbit platelet aggregation assessed as platelet aggregation at 2 ug/ml preincubated for 3 mins by turbidimetric method relative to control; type: functional, Oryctolagus cuniculus
[18] = Antiplatelet activity against arachidonic acid-induced rabbit platelet aggregation assessed as platelet aggregation at 1 ug/ml preincubated for 3 mins by turbidimetric method relative to control; type: functional, Oryctolagus cuniculus
Aorta [19] = experiment: Vasorelaxant activity against 80 mM potassium-induced contractions in rat thoracic aorta assessed as muscle contractions at 1 uM pretreated for 15 mins before potassium administration relative to control; type: functional; parameters: scale not given: the % may be the effect or the level left
Aorta [20] = experiment: Vasorelaxant activity against 3 uM norepinephrine -induced phasic contractions in rat thoracic aorta assessed as muscle contractions at 1 uM pretreated for 15 mins before norepinephrine administration relative to control; type: functional; parameters: scale not given: the % may be the effect or the level left
Aorta [21] = experiment: Vasorelaxant activity against 3 uM norepinephrine -induced tonic contractions in rat thoracic aorta assessed as muscle contractions at 1 uM pretreated for 15 mins before norepinephrine administration relative to control; type: functional; parameters: scale not given: the % may be the effect or the level left

| SMILES | Activity [1] [%] | Activity [2] [%] | Activity [3] [%] | Activity [4] [%] | Activity [6] [%] | Activity [7] [%] | Activity [8] [%] | further results |
| --- | --- | --- | --- | --- | --- | --- | --- | --- |
| COc1ccc2c(c1OC)-c1c3c(cc4c1[C@H](C2)N(C)CC4)OCO3 | 47.9 | 0 | 0 | 75.1 | 50.4 | 72.5 | 83.4 | Activity [5]: 0% |
| COc1ccc2c(c1O)-c1c3c(cc4c1[C@H](C2)N(C)CC4)OCO3 [(S)-BULBOCAPNINE] | 86.8 | 89.3 | 83.2 | 86.6 | – | – | – | – |
| COc1cc2c(cc1O)C[C@@H]1NCCc3cc4c(c-2c31)OCO4 [ACTINODAPHNINE] | 0 | 0 | 0 | 0 | 42.7 | 60.5 | 80.3 | Activity [5]: 0%; Activity (Aorta [9]): 41.9%; Activity (Aorta [10]): 40.6%; Activity (Aorta [11]): 15.5%; Activity (Aorta [12]): inactive |
| CC(=O)Oc1ccccc1C(=O)O [ASPIRIN] | – | 0 | – | – | – | – | – | Activity [13]: 77.9%; Activity [14]: 0%; Activity [15]: 87.8%; Activity [16]: 90.4% |
| COc1cc2c(cc1O)C[C@H]1c3c(cc4c(c3-2)OCO4)CCN1C [CASSYTHICINE] | 0 | 0 | 0 | 68.1 | 0 | 16.2 | 51.4 | Activity (Aorta [9]): 112.9%; Activity (Aorta [10]): 225%; Activity (Aorta [11]): 98.9%; Activity [17]: 69.1%; Activity [18]: 82.5% |
| COc1cc2c(cc1OC)-c1c3c(cc4c1[C@H](C2)N(C)CC4)OCO3 [DICENTRINE] | 4 | 0 | 3.2 | 7.6 | 0 | 55.1 | 77.7 | Activity [17]: 83.4% |
| COc1cc2c(cc1OC)-c1c3c(cc4ccnc(c14)C2=O)OCO3 [DICENTRINONE] | – | – | – | – | – | – | – | Activity (Aorta [9]): 111.1%; Activity (Aorta [10]): 89.7%; Activity (Aorta [11]): 64%; Activity (Aorta [12]): inactive |
| COc1c(O)ccc2c1-c1c(OC)c(O)cc3c1[C@H](C2)NCC3 [HERNOVINE] | 87.2 | 47 | 0 | 64.1 | – | – | – | – |
| COc1ccc2c(c1O)-c1c3c(cc4c1[C@H](C2)NCC4)OCO3 [LAUNOBINE] | 84.2 | 11.8 | 29.9 | 70.7 | – | – | – | – |
| O=C1c2ccccc2-c2c3c(cc4ccnc1c24)OCO3 [LIRIODENINE] | – | – | – | – | – | – | – | Activity [13]: 5.4%; Activity [14]: 40.5%; Activity [15]: 5.3%; Activity [16]: 84.1% |
| COC(=O)C1=C(C)NC(C)=C(C(=O)OC)C1c1ccccc1[N+](=O)[O-] [NIFEDIPINE] | – | – | – | – | – | – | – | Activity (Aorta [19]): 0% |
| COc1cc2nc(N3CCN(C(=O)c4ccco4)CC3)nc(N)c2cc1OC [PRAZOSIN] | – | – | – | – | – | – | – | Activity (Aorta [20]): 0%; Activity (Aorta [21]): 0% |
